# From patent publication US10689363B2 (Merck Patent GmbH, priority 2017, dated 2020)
# Like-named read-outs stand apart in the source and are kept apart here.
# Tests used:
# Format in all cases: physicochemical
# [1] = Water Vapour Sorption isotherm (25° C., DVS-Intrinsic), hygroscopicity acc. to Ph. Eur. 5.11.; details: for water uptake levels: 25° C.
# Protocol: (§1) (based on multiple measurements on different samples of form A2). […] DSC scan of form A2 was acquired on a Mettler-Toledo DSC 821 with a heating rate of 50 K/min, using nitrogen purge gas at 50 mL/min. TGA scan of form A2 was acquired on a Mettler-Toledo TGA 851 with a heating rate of 5 K/min, using nitrogen purge gas at 50 mL/min. […] Eur. Criteria (section 5.11.). Water Vapour Sorption isotherm was acquired on a DVS-Intrinsic system from SMS.
# (based on multiple measurements on different samples of form NF5). […] Eur. Criteria (section 5.11.). […] Water Vapour Sorption isotherm was acquired on a DVS-Intrinsic system from SMS.
# (based on multiple measurements on one sample of form NF6). […] Eur. Criteria (section 5.11.). […] Water Vapour Sorption isotherm was acquired on a DVS-Intrinsic system from SMS.
# Eur. Criteria (section 5.11.). […] Water Vapour Sorption isotherm was acquired on a DVS-Intrinsic system from SMS.
# as §1, with “Other physical properties of” for “(based on multiple measurements on different samples of”, “form Fumarate-NF1 include the following: ^1H-NMR spectroscopic data reveal a API:Fumarate molar ratio of 1:1.” for “form A2).”, “form Fumarate-NF1” for “form A2”, “of 5” for “of 50”, “5.11.). […]” for “5.11.).”
# Other physical properties of form Maleate-NF1 include the following: ^1H-NMR spectroscopic data reveal a API:Maleate molar ratio of 1:1. […] DSC scan of form Maleate-NF1 was acquired on a Mettler-Toledo DSC 821 with a heating rate of 5 K/min, using nitrogen purge gas at 50 mL/min. TGA scan of form Maleate-NF1 was acquired on a Mettler-Toledo TGA 851 with a heating rate of 5 K/min, using nitrogen purge gas at 50 mL/min. […] Form Maleate-NF1 can be classified as non-hygroscopic according to Ph. Eur. Criteria (section 5.11.). […] Water Vapour Sorption isotherm was acquired on a DVS-Intrinsic system from SMS.
# Other physical properties of form Citrate-NF1 include the following: ^1H-NMR spectroscopic data reveal a API:Citrate molar ratio of 1:1. […] DSC scan of form Citrate-NF1 was acquired on a Mettler-Toledo DSC 821 with a heating rate of 5 K/min, using nitrogen purge gas at 50 mL/min. TGA scan of form Citrate-NF1 was acquired on a Mettler-Toledo TGA 851 with a heating rate of 5 K/min, using nitrogen purge gas at 50 mL/min. […] Eur. Criteria (section 5.11.). […] Water Vapour Sorption isotherm was acquired on a DVS-Intrinsic system from SMS.
# (based on multiple measurements on different samples of form A1). […] DSC scan of form A1 was acquired on a Mettler-Toledo DSC 821 with a heating rate of 50 K/min, using nitrogen purge gas at 50 mL/min. TGA scan of form A1 was acquired on a Mettler-Toledo TGA 851 with a heating rate of 5 K/min, using nitrogen purge gas at 50 mL/min. […] Eur. Criteria (section 5.11.). […] Water Vapour Sorption isotherm was acquired on a DVS-Intrinsic system from SMS. […] Dissolution level of form A1 in Fasted-State Simulated Intestinal Fluid [FaSSIF, pH 6.5] at 37° C. was determined to be approx. 36 μg/mL (after 2 h), and dissolution level of form A1 in Fed-State Simulated Intestinal Fluid [FeSSIF, pH 5.0] at 37° C. was determined to be approx. 214 μg/mL (after 2 h), respectively (see example 11).
# All forms were characterized according to standard methods which are found in e.g. Rolf Hilfiker, ‘Polymorphism in the Pharmaceutical Industry’. Wiley-VCH. Weinheim 2006 (Chapter 6: X-Ray Diffraction. Chapter 6: Vibrational Spectroscopy. Chapter 3: Thermal Analysis, Chapter 9: Water Vapour Sorption, and references therein); and H. G. Brittain, ‘Polymorphism in Pharmaceutical Solids. Vol. 95. Marcel Dekker Inc., New York 1999 (Chapter 6 and references therein).
# [2] = Mini-dissolution in FaSSIF / FeSSIF medium at 37° C.; details: for Dissolution levels in FaSSIF pH 6.5: FaSSIF pH 6.5, 37° C.; for Dissolution levels in FeSSIF pH 5.0: FeSSIF pH 5.0, 37° C.
# Protocol: All dispersions were agitated at 37° C. for up to 2 hours. At defined time intervals (30 min. 60 min, 120 min), sample aliquots of homogeneous dispersions were withdrawn by a syringe, and filtrated via syringe filter adapters (PTFE, 0.45 μm).
# [3] = Thermodynamic solubility (24 h, 37° C.) in FaSSIF medium or USP Phosphate buffer; details: for solubility thermodynamic at 24 h: 37 °C, thermodynamic from solid
# [4] = 120 min (2 h), listed as form Malonate-NF1
# [5] = 120 min (2 h), listed as form Oxalate-NF1
# [6] = 120 min (2 h), listed as form Succinate-NF1
hygroscopicity classification according to Ph. Eur. Criteria (section 5.11.) [1],Dissolution levels in FaSSIF pH 6.5 ([2]; 30 min) [μg/mL],Dissolution levels in FaSSIF pH 6.5 ([2]; 60 min) [μg/mL],Dissolution levels in FaSSIF pH 6.5 ([2]; 120 min (2 h)) [μg/mL],"dissolution levels (2 h), factor higher vs form A1 ([2]; FaSSIF)",Dissolution levels in FeSSIF pH 5.0 ([2]; 30 min) [μg/mL],Dissolution levels in FeSSIF pH 5.0 ([2]; 60 min) [μg/mL],Dissolution levels in FeSSIF pH 5.0 ([2]; 120 min (2 h)) [μg/mL],"dissolution levels (2 h), factor higher vs form A1 ([2]; FeSSIF)",Compound,other results
Slightly hygroscopic,,,,,,,,,"C=CC(=O)N1CCC(CNc2ncnc(N)c2-c2ccc(Oc3ccccc3)cc2)CC1.O=C(O)CCC(=O)O [Citrate-NF1, 1-(4-{[6-Amino-5-(4-phenoxy-phenyl)-pyrimidin-4-ylamino]-methyl}-piperidin-1-yl)-propenone]","hygroscopicity classification according to Ph. Eur. Criteria (section 5.11.) ([1]; listed as form Citrate-NF1): slightly hygroscopic; water uptake levels ([1]; relative humidity range 0-80% rh, listed as form Citrate-NF1): < 2.0 wt %"
Slightly hygroscopic,,,,,,,,,"C=CC(=O)N1CCC(CNc2ncnc(N)c2-c2ccc(Oc3ccccc3)cc2)CC1.O=C(O)CCC(=O)O [Fumarate-NF1, 1-(4-{[6-Amino-5-(4-phenoxy-phenyl)-pyrimidin-4-ylamino]-methyl}-piperidin-1-yl)-propenone]","hygroscopicity classification according to Ph. Eur. Criteria (section 5.11.) ([1]; listed as form Fumarate-NF1): slightly hygroscopic; water uptake levels ([1]; relative humidity range 0-80% rh, listed as form Fumarate-NF1): < 0.5 wt %"
Non-hygroscopic,,,,,,,,,"C=CC(=O)N1CCC(CNc2ncnc(N)c2-c2ccc(Oc3ccccc3)cc2)CC1.O=C(O)CCC(=O)O [Maleate-NF1, 1-(4-{[6-Amino-5-(4-phenoxy-phenyl)-pyrimidin-4-ylamino]-methyl}-piperidin-1-yl)-propenone]","hygroscopicity classification according to Ph. Eur. Criteria (section 5.11.) ([1]; listed as form Maleate-NF1): non-hygroscopic; water uptake levels ([1]; relative humidity range 0-80% rh, listed as form Maleate-NF1): < 0.5 wt %"
Slightly hygroscopic,47,53,75,~2,651,694,740,~3.5,"C=CC(=O)N1CCC(CNc2ncnc(N)c2-c2ccc(Oc3ccccc3)cc2)CC1.O=C(O)CCC(=O)O [Malonate-NF1, 1-(4-{[6-Amino-5-(4-phenoxy-phenyl)-pyrimidin-4-ylamino]-methyl}-piperidin-1-yl)-propenone]","Dissolution levels in FaSSIF pH 6.5 [2, 4]: approx. 75 μg/mL; Dissolution levels in FeSSIF pH 5.0 [2, 4]: approx. 740 μg/mL; hygroscopicity classification according to Ph. Eur. Criteria (section 5.11.) ([1]; listed as form Malonate-NF1): slightly hygroscopic; water uptake levels ([1]; relative humidity range 0-80% rh, listed as form Malonate-NF1): < 0.5 wt %"
Slightly hygroscopic,50,54,58,~1.5,600,700,740,~3.5,"C=CC(=O)N1CCC(CNc2ncnc(N)c2-c2ccc(Oc3ccccc3)cc2)CC1.O=C(O)CCC(=O)O [Oxalate-NF1, 1-(4-{[6-Amino-5-(4-phenoxy-phenyl)-pyrimidin-4-ylamino]-methyl}-piperidin-1-yl)-propenone]","Dissolution levels in FaSSIF pH 6.5 [2, 5]: approx. 58 μg/mL; Dissolution levels in FeSSIF pH 5.0 [2, 5]: approx. 740 μg/mL; hygroscopicity classification according to Ph. Eur. Criteria (section 5.11.) ([1]; listed as form Oxalate-NF1): slightly hygroscopic; water uptake levels ([1]; relative humidity range 0-80% rh, listed as form Oxalate-NF1): < 1.0 wt %"
Slightly hygroscopic,92,95,100,~3,625,708,743,~3.5,"C=CC(=O)N1CCC(CNc2ncnc(N)c2-c2ccc(Oc3ccccc3)cc2)CC1.O=C(O)CCC(=O)O [Succinate-NF1, 1-(4-{[6-Amino-5-(4-phenoxy-phenyl)-pyrimidin-4-ylamino]-methyl}-piperidin-1-yl)-propenone]","Dissolution levels in FaSSIF pH 6.5 [2, 6]: approx. 100 μg/mL; Dissolution levels in FeSSIF pH 5.0 [2, 6]: approx. 743 μg/mL; hygroscopicity classification according to Ph. Eur. Criteria (section 5.11.) ([1]; listed as form Succinate-NF1): slightly hygroscopic; water uptake levels ([1]; relative humidity range 0-80% rh, listed as form Succinate-NF1): ≤ 2.0 wt %"
slightly hygroscopic,,,,,,,,,"C=CC(=O)N1CCC(CNc2ncnc(N)c2-c2ccc(Oc3ccccc3)cc2)CC1 [form A2, 1-(4-{[6-Amino-5-(4-phenoxy-phenyl)-pyrimidin-4-ylamino]-methyl}-piperidin-1-yl)-propenone]","hygroscopicity classification according to Ph. Eur. Criteria (section 5.11.) ([1]; listed as A2): Slightly hygroscopic; water uptake levels ([1]; relative humidity range 0-98% rh): ≤ 1 wt %; water uptake levels ([1]; relative humidity range 90-98% rh): ≤ 2 wt %; thermodynamic solubility compared to form A1 (in words) [3]: higher; thermodynamic solubility, factor higher vs form A1 ([3]; FaSSIF): ~1.5; solubility thermodynamic at 24 h ([3]; FaSSIF medium, pH 6.5, fassif, FaSSIF pH 6.5, 37° C., read-out: Thermodynamic solubility FaSSIF pH 6.5): ~33 µg/mL; thermodynamic solubility, factor higher vs form A1 ([3]; PBS buffer pH 7.4): ~2; solubility thermodynamic at 24 h ([3]; USP phosphate buffer, pH 7.4, aqueous buffer, USP Phosphate buffer pH 7.4, 37° C., read-out: Thermodynamic solubility PBS buffer 7.4): ~27 µg/mL"
